Test results from article PMC6828666, “Discovery of holoenzyme-disrupting chemicals as substrate-selective CK2 inhibitors” (Scientific Reports, 2019).
Where “and” joins values, the source holds several entries; their conditions need not be identical. Equal values may be shown once. Entries after “also recorded” stand apart in the source; their conditions may differ.

Columns and labels:
CK2α2β2 holoenzyme = target: T1, CK2α2β2 holoenzyme (Homo sapiens, UniProt P68400); assay: CK2 kinase assay with CK2β-dependent peptide substrate (eIF2-derived); format: biochemical; settings: for IC50: phosphorylation of CK2β-dependent peptide substrate
T1 construct: made in house; host or cells: Escherichia coli (CK2α)
T1 sequence (P68400 whole entry): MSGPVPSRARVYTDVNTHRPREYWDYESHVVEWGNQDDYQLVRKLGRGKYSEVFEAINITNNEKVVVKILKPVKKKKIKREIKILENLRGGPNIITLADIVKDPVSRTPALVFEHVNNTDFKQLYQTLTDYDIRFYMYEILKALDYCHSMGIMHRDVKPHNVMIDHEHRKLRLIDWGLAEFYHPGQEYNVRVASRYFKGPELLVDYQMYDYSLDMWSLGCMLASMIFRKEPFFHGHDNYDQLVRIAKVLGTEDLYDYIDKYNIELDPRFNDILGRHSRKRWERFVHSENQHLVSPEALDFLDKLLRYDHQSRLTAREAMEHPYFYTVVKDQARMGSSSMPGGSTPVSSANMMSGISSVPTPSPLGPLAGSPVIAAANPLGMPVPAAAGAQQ
Description: First, all the compounds were dissolved at 200 μM in 50 mM Tris-HCl pH 7.5 buffer containing 0.1 M NaCl and 5% DMSO; the compounds that precipitated under these conditions were discarded. The 32 remaining compounds were diluted at 200 μM in the kinase buffer and centrifuged at 14,000 g. The supernatant was then assayed for ability to inhibit phosphorylation of a CK2β-dependent peptide substrate. For this, a 22-residue long N-terminal fragment of the eukaryotic translation initiation factor 2 (eIF2), known to be exclusively phosphorylated by the CK2α2β2 holoenzyme[4] was used as a substrate. […]
Final concentration of ATP was 100 μM. Assays were performed under linear kinetic conditions for 5 min at room temperature before termination by the addition of 60 μL of 4% TCA. ^32P incorporation in peptide substrate was determined as previously described. […]

MDA-MB231 cells = assay: Cell death by propidium iodide live-cell imaging (IncuCyte); format: cell-based; settings: for effect of pan-caspase inhibitor Z-VAD on compound-induced cell death: 80 μM compound, 20 μM Z-VAD
Description: Figure 5 Cellular effects of compounds 3, 4 and 6. MCF10A cells were incubated for 24 h with either DMSO or 30 μM TAT or 30 μM TAT-Pc or 25 μM 6 (a) or with increasing concentrations of 6 (b) or 3 (c). MCF10A cells were incubated for 48 h with either DMSO or with increasing concentrations of 3 or 6 (d). Cells were then lysed and analyzed by western blot with the indicated antibodies. Blot images are representative of at least three independent experiments. Uncropped blots are shown in Supplementary Fig. S16. (e) MDA-MB231 cells were treated with 40 μM 6 (⚬), 4 (▴) or 3 (X). (f) MDA-MB231 cells were treated for 30 h with increasing concentrations of 6 (⚬) or 4 (▴). Insert: cells were treated for 30 h with 80 μM 6 or 10 μM CX-4945. (g) Cells were incubated with 80 μM 6 or 4 in the absence or presence of 20 μM Z-VAD. […] (h) MDA-MB231 cells (⚬) or MCF10A cells (⦁) were incubated for 24 h with 80 μM 6. Cell death was automatically quantified from images captured every 3 h for the duration of the experiments using an Essen IncuCyte Zoom live-cell microscopy incubator. Error bars represent the SEM of two biological replicates derived from technical triplicates.
Cells grown on 96-well flat-bottomed plates (Corning Falcon) were tracked using an Essen IncuCyte Zoom live-cell microscopy instrument, an automated live cell imager with high-throughput capabilities and built-in data analysis. Experiments were conducted at 37 °C and 5% CO2. The software incorporated into the IncuCyte Zoom was used to analyze the images.
Cells plated at equal density (2 × 10^4 cells/well) were treated with the indicated inhibitors in cell culture medium containing 0.5 μg/ml Propidium iodide (Sigma-Aldrich). Images of PI-stained red fluorescent cells were captured every 3 h for the duration of the experiment. For apoptosis detection, 50 μL/mL fluorochrome-conjugated Annexin V (Molecular Probes) was added to the medium together with Propidium iodide and apoptotic cell numbers were calculated.

CK2α = CK2α (Homo sapiens, UniProt P68400); assay: SPR binding studies on captured GST-CK2α; settings: surface plasmon resonance
CK2α, sequence (P68400 whole entry): as above
Description: SPR competition studies (Fig. 2i) were performed using a BIAcore 3000 instrument (BIAcore AB) equipped with a CM5 sensor chip (BIAcore AB). After activation with a solution of N-hydroxysuccinimide and N-ethyl-N-(dimethylaminopropyl)carbodiimide hydrochloride (coupling solution BIAcore AB), the anti-GST antibody diluted at 30 μg/ml in 10 mM acetate buffer pH 5.0 was injected at a flow rate of 5 μL/min for 7 min. All the surfaces were blocked with a 3 min injection at 10 μL/min of 1 M ethanolamine, pH 8.0. GST-CK2α (50 μg/ml) was immobilized on the surface at a flow rate of 5 μL/min in HBS (10 mM Hepes pH 7.3, 0.15 M NaCl, 3 mM EDTA, 0.005% polysorbate 20). MBP-CK2β diluted at 50 μg/ml in HBS buffer was injected over the surface at a flow rate of 5 μL/min in presence of various compound 1 concentration. Regeneration of the surfaces was achieved by injection of 10 mM glycine-HCl pH 2.2. SPR binding studies (Supplementary Fig. S7) were performed using a Reichert SR7000DC instrument optical biosensor (Reichert Technologies) equipped with a CMD500m sensor chip obtained from XanTec Bioanalytics. CK2α was immobilized by a capturing approach using a monoclonal anti-GST antibody (27 kDa, Clone GST-R 6G9 produced in rat, SAB4200055 Sigma Aldrich). Prior to use, the anti-GST antibodies were purified twice by micro dialysis at 4 °C (Membrane: dialysis tubing benzoylated, 9 mm, D2272-5FT) in 10 mM sodium acetate, pH = 5. Anti-GST antibodies were immobilized using amine-coupling chemistry at 12 °C. The surfaces of all two flow cells were activated for 7 min with a 1:1 mixture of 0.1 M NHS (N-hydroxysuccinimide) and 0.1 M EDC (3-(N,N-dimethylamino) propyl-N-ethylcarbodiimide) at a flow rate of 10 μL/min. The antibody at a concentration of 30 μg/mL in 10 mM sodium acetate, pH 5.0, was immobilized at a density of 2000 RU on flow cell 2; flow cell 1 was left blank to serve as a reference surface. All the surfaces were blocked with a 3 min injection at 10 μL/min of 1 M ethanolamine, pH 8.0. GST tagged CK2α at a concentration of 50 μg/mL in 10 mM HEPES, 150 mM NaCl, 3 mM EDTA, 0.005% (v/v) polysorbate 20, pH = 7.4 was captured at a density of 900 RU on flow cell 2. In order to collect kinetic binding data, analytes in 10 mM HEPES, 150 mM NaCl, 3 mM EDTA, 0.005% (v/v) polysorbate 20, 1% DMSO (v/v), 100 μM ATP, pH = 7.4 were injected over the two flow cells at concentrations of 50, 25, 12.5, 6.25, 3.12, 1.56 μM at a flow rate of 25 μL/min and at a temperature of 25 °C. The complex was allowed to associate and dissociate for 120 s. Duplicate injections (in random order) of each sample and a buffer blank were flowed over the two surfaces. Affinities were obtained after treatments (DMSO calibration, blank and references subtractions) using the software Scrubber 2.0c.
Fig. S7. Binding kinetics of compounds 2-6 by surface plasmon resonance. For each compound, sensorgrams (black line) and global fits (orange line) are depicted with the corresponding chemical structure and the fitted kinetics parameters. Experiments show representative data of two identical repeats.

[1] = compound at 50 μM, CK2β-dependent peptide substrate

SMILES | Inhibition % at 50 μM (CK2α2β2 holoenzyme; [1]) [%] | effect of pan-caspase inhibitor Z-VAD on compound-induced cell death (MDA-MB231 cells) | sensitivity of MDA-MB231 cells to compound-mediated cell death compared with MCF10A cells (MDA-MB231 cells; 80 μM, 24 h) | time to retraction of membrane extension by the majority of cells (MDA-MB231 cells; MDA-MB231, 40 μM) [h] | concentration at which cell death was already detectable (MDA-MB231 cells; MDA-MB231, 30 h) [µM] | cell death (MDA-MB231 cells; MDA-MB231, 30 h, 80 μM) | Kd (CK2α) [µM] | inhibition at 50 µM (CK2α2β2 holoenzyme; [1]) [%] | IC50 (CK2α2β2 holoenzyme) | inhibition of CK2β-dependent phosphorylation upon addition of Triton X-100 (CK2α2β2 holoenzyme; 0.01% vol/vol Triton X-100, 50 μM compound) | reversibility of inhibition (CK2α2β2 holoenzyme; dilution of the reaction mixture or gel filtration) | cell death (MDA-MB231 cells; MDA-MB231, 40 μM)
COc1[nH]c2ccc(F)cc2c1C(=O)OCC1CCN(CCNS(=O)(=O)c2ccccc2)CC1.Cl [Compound 6] | 80 | significantly affected; also recorded: significantly attenuated | much more sensitive | 9 | 20 | massive | – | – | – | – | – | –
O=C(OCC1CCN(CCNS(=O)(=O)c2ccccc2)CC1)c1c[nH]c2ccccc12 [Compound 4, (1-(2-(Phenylsulfonamido)ethyl)piperidin-4-yl)methyl 1H-indole-3-carboxylate] | – | not significantly affected | – | 9 | 20 | massive | 41 ± 5 | 57 | 45 µM | – | – | –
COc1[nH]c2ccc(F)cc2c1C(=O)OCC1CCN(CCNS(C)(=O)=O)CC1 [Compound 1] | – | – | – | – | – | – | – | 48 | ~50 µM and 50 µM | not affected | reversed | –
CS(=O)(=O)NCCN1CCC(COC(=O)c2c[nH]c3ccccc23)CC1 [Compound 3, (1-(2-(Methylsulfonamido)ethyl)piperidin-4-yl)methyl 1H-indole-3-carboxylate] | – | – | – | – | – | – | 54 ± 5 | 28 | – | – | – | without effect
